Test system: 695427-040-R-J1-PDC complex spheroids, viability percent T/C
Test: Anticancer human tumor 695427-040-R-J1-PDC patient-derived colon adenocarcinoma cell line growth inhibition [GQUAD]
Settings: for IC50: curve of first compound; for viability, T/C: stronger effect = lower value; active = viability on the fitted dose curve at most 10% of control; inactive = the rest
Summary of the method: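 Viability of tumor cells grown as complex spheroids with endothelial and stromal cells, exposed to drug combinations. Top concentration at or near clinical Cmax (else 10 microM), diluted in half-log increments.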

[1] = second compound 0.0316 µM, first compound 0.0316 µM
[2] = second compound 0.0316 µM, first compound 0.1 µM
[3] = second compound 0.0316 µM, first compound 0.316 µM
[4] = second compound 0.0316 µM, first compound 1 µM
[5] = second compound 0.0316 µM, first compound 3.16 µM
[6] = second compound 0.0316 µM, first compound 10 µM
[7] = second compound 0.1 µM, first compound 0.0316 µM
[8] = second compound 0.1 µM, first compound 0.1 µM
[9] = second compound 0.1 µM, first compound 0.316 µM
[10] = second compound 0.1 µM, first compound 1 µM
[11] = second compound 0.1 µM, first compound 3.16 µM
[12] = second compound 0.1 µM, first compound 10 µM
[13] = second compound 0.316 µM, first compound 0.0316 µM
[14] = second compound 0.316 µM, first compound 0.1 µM
[15] = second compound 0.316 µM, first compound 0.316 µM
[16] = second compound 0.316 µM, first compound 1 µM
[17] = second compound 0.316 µM, first compound 3.16 µM
[18] = second compound 0.316 µM, first compound 10 µM
[19] = second compound 1 µM, first compound 0.0316 µM
[20] = second compound 1 µM, first compound 0.1 µM
[21] = second compound 1 µM, first compound 0.316 µM
[22] = second compound 1 µM, first compound 1 µM
[23] = second compound 1 µM, first compound 3.16 µM
[24] = second compound 1 µM, first compound 10 µM
[25] = second compound 3.16 µM, first compound 0.0316 µM
[26] = second compound 3.16 µM, first compound 0.1 µM
[27] = second compound 3.16 µM, first compound 0.316 µM
[28] = second compound 3.16 µM, first compound 1 µM
[29] = second compound 3.16 µM, first compound 3.16 µM
[30] = second compound 3.16 µM, first compound 10 µM
[31] = second compound 10 µM, first compound 0.0316 µM
[32] = second compound 10 µM, first compound 0.1 µM
[33] = second compound 10 µM, first compound 0.316 µM
[34] = second compound 10 µM, first compound 1 µM
[35] = second compound 10 µM, first compound 3.16 µM
[36] = second compound 10 µM, first compound 10 µM
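Also: spheroids exposed to compounds for seven days before readout.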

C=CCn1c(=O)c2cnc(Nc3ccc(N4CCN(C)CC4)cc3)nc2n1-c1cccc(C(C)(C)O)n1 + Cc1cnc(CNC(=O)c2c(=O)c3ccc(N4CCCN(C)CC4)nc3n3c2sc2ccccc23)cn1
inactive: viability, T/C [1] 88.3% | viability, T/C [2] 78.8% | viability, T/C [3] 73.2% | viability, T/C [4] 51.7% | viability, T/C [5] 47% | viability, T/C [6] 41.1% | viability, T/C [7] 79.5% | viability, T/C [8] 71% | viability, T/C [9] 65.2% | viability, T/C [10] 49.4% | viability, T/C [11] 53.8% | viability, T/C [12] 40.8% | viability, T/C [13] 74.8% | viability, T/C [14] 55% | viability, T/C [15] 67.6% | viability, T/C [16] 58.5% | viability, T/C [17] 59.3% | viability, T/C [18] 40.6% | viability, T/C [19] 51.6% | viability, T/C [20] 57.2% | viability, T/C [21] 62% | viability, T/C [22] 43% | viability, T/C [23] 55.2% | viability, T/C [24] 49.5% | viability, T/C [25] 32.3% | viability, T/C [26] 49.6% | viability, T/C [27] 48.6% | viability, T/C [28] 33.4% | viability, T/C [29] 28.8% | viability, T/C [30] 28.6% | viability, T/C [31] 9.19% | viability, T/C [32] 15.3% | viability, T/C [33] 32.1% | viability, T/C [34] 25% | viability, T/C [35] 14.7% | viability, T/C [36] 0.75%
5160 nM: IC50 (second compound 0.316 µM)
1720 nM: IC50 (second compound 0.0316 µM)
< 31.6 nM: IC50 (second compound 3.16 µM) | IC50 (second compound 10 µM)
2450 nM: IC50 (second compound 0.1 µM)
8260 nM: IC50 (second compound 1 µM)

CC1COCCN1c1cc(C2(O)CC3CCC(C2)O3)c2cnn(-c3ccn[nH]3)c2n1 (stereo unspecified) + Cc1cnc(CNC(=O)c2c(=O)c3ccc(N4CCCN(C)CC4)nc3n3c2sc2ccccc23)cn1
inactive: viability, T/C [1] 75.1% | viability, T/C [2] 63% | viability, T/C [3] 49.8% | viability, T/C [4] 31.1% | viability, T/C [5] 26% | viability, T/C [6] 18.1% | viability, T/C [7] 79% | viability, T/C [8] 57% | viability, T/C [9] 47% | viability, T/C [10] 34.1% | viability, T/C [11] 30.3% | viability, T/C [12] 20.9% | viability, T/C [13] 81.7% | viability, T/C [14] 41.3% | viability, T/C [15] 40.2% | viability, T/C [16] 26.8% | viability, T/C [17] 26.4% | viability, T/C [18] 18.4% | viability, T/C [19] 38.5% | viability, T/C [20] 41.1% | viability, T/C [21] 31.5% | viability, T/C [22] 29.7% | viability, T/C [23] 28.2% | viability, T/C [24] 14.3% | viability, T/C [25] 30.2% | viability, T/C [26] 35% | viability, T/C [27] 28.5% | viability, T/C [28] 16.9% | viability, T/C [29] 19.5% | viability, T/C [31] 22.1% | viability, T/C [32] 22.2% | viability, T/C [33] 19.3% | viability, T/C [34] 15.2%
91.1 nM: IC50 (second compound 0.316 µM)
277 nM: IC50 (second compound 0.0316 µM)
< 31.6 nM: IC50 (second compound 1 µM) | IC50 (second compound 3.16 µM) | IC50 (second compound 10 µM)
220 nM: IC50 (second compound 0.1 µM)
active: viability, T/C [30] 4.04% | viability, T/C [35] 8.74% | viability, T/C [36] 0.42%

CC(C)(O)C1CCC(Nc2ccc3ncc(-c4cccc(C(F)(F)F)c4)n3n2)CC1 (stereo unspecified) + Cc1[nH]c2ccc(F)cc2c1-c1nc2c3cccnc3c3ncccc3c2[nH]1
inactive: viability, T/C [1] 109% | viability, T/C [2] 99.1% | viability, T/C [3] 109% | viability, T/C [4] 95.6% | viability, T/C [5] 99.8% | viability, T/C [6] 82.5% | viability, T/C [7] 110% | viability, T/C [8] 100% | viability, T/C [9] 103% | viability, T/C [10] 100% | viability, T/C [11] 100% | viability, T/C [12] 81.9% | viability, T/C [13] 101% | viability, T/C [14] 102% | viability, T/C [15] 97.6% | viability, T/C [16] 93.2% | viability, T/C [17] 99.7% | viability, T/C [18] 80.1% | viability, T/C [19] 102% | viability, T/C [20] 89.4% | viability, T/C [21] 96.8% | viability, T/C [22] 87.6% | viability, T/C [23] 91.4% | viability, T/C [24] 78% | viability, T/C [25] 91.6% | viability, T/C [26] 86.9% | viability, T/C [27] 76.4% | viability, T/C [28] 89.5% | viability, T/C [29] 93.5% | viability, T/C [30] 62.5% | viability, T/C [31] 79% | viability, T/C [32] 68.6% | viability, T/C [33] 81.7% | viability, T/C [34] 80.5% | viability, T/C [35] 80% | viability, T/C [36] 67.3%
> 10000 nM: IC50 (second compound 0.0316 µM) | IC50 (second compound 0.1 µM) | IC50 (second compound 0.316 µM) | IC50 (second compound 1 µM) | IC50 (second compound 3.16 µM) | IC50 (second compound 10 µM)

— PubChem BioAssay AID2060492 (Molecular Pharmacology Branch, DTP, NCI, 2025)
